These results are taken from patent publication US20120129898A1, “PHARMACEUTICAL COMPOSITIONS FOR POORLY SOLUBLE DRUGS” (priority 2007, published 2012).

Series [1] can be described thus: Aqueous solubility of HEP. In kind it is physicochemical.
Series [2] in a line: Exposure after dosing crystalline HEP in animal species. In kind it is in vivo. The conditions noted are these: crystalline form dosed in animal species.

The structures appear in SMILES notation.

Take `CCC(=O)c1csc(NC(=O)[C@H]([C@@H](C)c2ccccc2)N2C(=O)N[C@H](c3ccc(OCCO)cc3)C2=O)n1` [HEP, (2S,3S)-2-{(R)-4-[4-(2-hydroxy-ethoxy)-phenyl]-2,5-dioxo-imidazolidin-1-yl}-3-phenyl-N-(4-propionyl-thiazol-2-yl)-butyramide]: the Aqueous solubility result in series [1] was “poor aqueous solubility”. In addition, in series [2], the “Exposure of crystalline form (even nanocrystalline)” value was “very low exposure”.
